Read-outs that look alike come from different tables or passages of the source.

Results on four compounds are retold here after patent US20070037709A1, “Polyethylene glycol esters of r-(+)-mcpp acid” (priority 2003, published 2007).

One assay has as its system lupin. As for the experimental part:
The compounds and mixtures of Examples 1 and 2 were tested for their activity for root penetration inhibition as specified in DIN 4062 (lupin test): […]

In another assay the test system is undesired plants. Conditions: crop protection; cited from earlier work.

`Cc1cc(Cl)ccc1OC(C)C(=O)OCCOCCOCCOCCOC(=O)C(C)Oc1ccc(Cl)cc1C` (racemic) [Example 2, diester of tetraethylene glycol with rac-2-(4-chloro-2-methylphenoxy)propionic acid]: the “Root penetration into (number)” value is listed as “approx. 40 number” with lupin (Concentration 0.1%), “approx. 40 number” in the assay with lupin (Concentration 0.2%), “approx. 10 number” in the assay with lupin (Concentration 0.5%) and 0 number in the assay on lupin (Concentration 1.0%). Further, the “Root penetration through (number)” value with lupin (Concentration 0.1%) is reported as 1 number; with lupin (Concentration 0.2%), 0 number; in the assay on lupin (Concentration 0.5%) it was 0 number; with lupin (Concentration 1.0%), 0 number.
On to `Cc1cc(Cl)ccc1O[C@H](C)C(=O)OCCOCCOCCOCCOC(=O)[C@@H](C)Oc1ccc(Cl)cc1C` [Example 1, diester of tetraethylene glycol with R-(+)-2-(4-chloro-2-methylphenoxy)propionic acid], for which the results for the “Root penetration into (number)” value with lupin (Concentration 0.1%), with lupin (Concentration 0.2%) and in the assay on lupin (Concentration 0.5%) were “approx. 40 number”, “approx. 15 number” and 1 number, respectively. For the same compound, the “Root penetration through (number)” value with lupin (Concentration 0.1%), in the assay with lupin (Concentration 0.2%) and with lupin (Concentration 0.5%) was 0 number throughout.
Turning to `Cc1cc(Cl)ccc1O[C@@H](C)C(=O)OCCOCCOCCOCCOC(=O)[C@H](C)Oc1ccc(Cl)cc1C` [Example 4, diester of tetraethylene glycol with S-(−)-2-(4-chloro-2-methylphenoxy)propionic acid], the “Root penetration into (number)” value is greater than 50 number with lupin (Concentration 0.1%), greater than 50 number in the assay with lupin (Concentration 0.2%), greater than 50 number in the assay with lupin (Concentration 0.5%) and “approx. 40 number” in the assay on lupin (Concentration 1.0%). Also, the “Root penetration through (number)” value is reported as greater than 50 number in the assay on lupin (Concentration 0.1%), greater than 50 number in the assay on lupin (Concentration 0.2%), greater than 50 number with lupin (Concentration 0.5%) and “approx. 40 number” in the assay on lupin (Concentration 1.0%).
In the case of `Cc1cc(Cl)ccc1O[C@H](C)C(=O)O` [R-(+) isomer, R-(+)-2-(4-chloro-2-methylphenoxy)propionic acid], the “herbicidal effectiveness compared with the S-(−) isomer or the racemic mixture” value in the assay on undesired plants is listed as “markedly more effective”.
